Results: patent US10280190B2, “Nicotinic acid riboside or nicotinamide riboside compositions, reduced derivatives thereof, and the use thereof to enhance skin permeation in treating skin conditions” (ChromaDex Inc., priority 2015, dated 2019)

Test system: A431 human epidermoid cells
Assay: Oxidative damage protection assay (Example 3), compound with 1 mM H2O2, alamar blue readout
Type: cell-based
Protocol: The cells were trypsinized with 0.25% trypsin EDTA solution for 2-3 minutes until the cells were dislodged. The cells were sub-cultured in a ratio of 1:3 for further growth and scale-up for the assay. The cells were trypsinized and counted to a density of 5,000 or 15,000 cells and seeded in 100 μL media per well, in 96-well clear bottom black plates. The outer wells at the periphery of the plates were left unneeded and were instead filled with media to reduce the edge effect during incubation. […] Each concentration was tested in 6 replicates.
Detection method used: Cell Titer blue (Promega, Cat# G8080).

CC(=O)OC[C@H]1O[C@@H](N2C=CCC(C(N)=O)=C2)[C@H](OC(C)=O)[C@@H]1OC(C)=O [NRH triacetate (2), 1-(2′,3′,5′-triacetyl-beta-D-ribofuranosyl)-1,4-dihydronicotinamide]
mitigating oxidative damage to human skin cells (Trial A, FIG. 1, 1 mM H2O2 for 20 hours, all doses (0.1, 0.3, 1 mM)): capable of mitigating oxidative damage
cytoprotection compared to positive controls (Trial A, FIG. 1, 1 mM H2O2 for 20 hours, dose-dependent, highest over 0.1-1 mM): up to 88%
cytoprotection compared to positive controls (Trial B, FIG. 2, 1 mM H2O2, compound at 1 mM): 94%
protection against oxidative damage in skin cells (composite of Trials A and B, FIG. 3): can protect against oxidative damage
